Laboratory results as given in US12064398B2, “Parenteral formulations” (Jazz Pharmaceuticals Research UK Limited, priority 2016, dated 2024).

Experiment: Solubility screening of CBD in solvents/diluents/surfactants
Assay type: physicochemical
Protocol: […] All the vials were sonicated tor 5 minutes and then left on a roller mixer, mixing for 48 hours. The roller mixer was covered with aluminium foil to prevent light exposure.
After 48 hours, all samples were centrifuged, and the supernatants taken (250 or 500 μL) using a Gilson pipette and added into a 10 ml volume flask. Methanol was used to make up the volume and the samples were tested by HPLC. Sample numbers 5, 9 and 10 were assayed using visual observation as the amount of API that could be added was so high.

## C=C(C)[C@@H]1CCC(C)=C[C@H]1c1c(O)cc(CCCCC)cc1O [CBD, cannabidiol]
Crodosal HS (0.5% w/v), HPLC
  ASSAY CBD: 2.6529 mg/mL
Crodosal HS (1% w/v), HPLC
  ASSAY CBD: 5.4462 mg/mL
Crodosal HS (2% w/v), HPLC
  ASSAY CBD: 5.0344 mg/mL
Crodosal HS (3% w/v), HPLC
  ASSAY CBD: 6.3465 mg/mL
Crodosal HS (4% w/v), HPLC
  ASSAY CBD: 7.5569 mg/mL
Crodosal HS (5% w/v), HPLC
  ASSAY CBD: 7.9983 mg/mL
ETOH (0.5% v/v), HPLC
  ASSAY CBD: 0.0496 mg/mL
ETOH (1% v/v), HPLC
  ASSAY CBD: 0.0426 mg/mL
ETOH (3% v/v), HPLC
  ASSAY CBD: 0.0054 mg/mL
ETOH (5% v/v), HPLC
  ASSAY CBD: 0.0244 mg/mL
ETOH (100% v/v), visual observation
  ASSAY CBD: >1000 mg/mL
Glucose (5% w/v), HPLC
  ASSAY CBD: 0.0008 mg/mL
Glucose (10% w/v), HPLC
  ASSAY CBD: 0.2379 mg/mL
Glycerol (10% v/v), HPLC
  ASSAY CBD: 0.0029 mg/mL
Glycerol (20% v/v), HPLC
  ASSAY CBD: 0.0437 mg/mL
Glycerol (40% v/v), HPLC
  ASSAY CBD: 0.0859 mg/mL
Mannitol (5% w/v), HPLC
  ASSAY CBD: 0.0009 mg/mL
Mannitol (10% w/v), HPLC
  ASSAY CBD: 0.0148 mg/mL
PEG400 (5% v/v), HPLC
  ASSAY CBD: 0.1596 mg/mL
PEG400 (15% v/v), HPLC
  ASSAY CBD: 0.1946 mg/mL
PEG400 (25% v/v), HPLC
  ASSAY CBD: 0.1617 mg/mL
PEG400 (100% v/v), visual observation
  ASSAY CBD: >400 mg/mL
PEG400 and ethanol increased to 50% in water
  dissolution of the 10 mg of CBD added: did not dissolve completely
PVP K12 (1% w/v), HPLC
  ASSAY CBD: 0.0615 mg/mL
PVP K12 (2% w/v), HPLC, high assay result probably due to sampling problem
  ASSAY CBD: 0.1746 mg/mL
PVP K12 (3% w/v), HPLC
  ASSAY CBD: 0.0639 mg/mL
PVP K12 (5% w/v), HPLC
  ASSAY CBD: 0.0157 mg/mL
PVP K17 (1% w/v), HPLC
  ASSAY CBD: 0.0031 mg/mL
PVP K17 (2% w/v), HPLC
  ASSAY CBD: 0.0433 mg/mL
PVP K17 (3% w/v), HPLC
  ASSAY CBD: 0.0409 mg/mL
PVP K17 (5% w/v), HPLC
  ASSAY CBD: 0.2360 mg/mL
Pluronic F68 (1% w/v), HPLC
  ASSAY CBD: 0.1403 mg/mL
Pluronic F68 (2% w/v), HPLC
  ASSAY CBD: 0.5209 mg/mL
Pluronic F68 (3% w/v), HPLC
  ASSAY CBD: 0.5042 mg/mL
Pluronic F68 (5% w/v), HPLC
  ASSAY CBD: 1.0654 mg/mL
Polysorbate 80 (0.5% w/v), HPLC
  ASSAY CBD: 3.2600 mg/mL
Polysorbate 80 (1% w/v), HPLC
  ASSAY CBD: 6.0415 mg/mL
Polysorbate 80 (3% w/v), HPLC
  ASSAY CBD: 22.9779 mg/mL
Polysorbate 80 (5% w/v), HPLC
  ASSAY CBD: 30.6529 mg/mL
Saline (0.45% w/v), HPLC
  ASSAY CBD: 0.0021 mg/mL
Saline (0.9% w/v), HPLC
  ASSAY CBD: 0.0551 mg/mL
Sucrose (5% w/v), HPLC
  ASSAY CBD: 0.0202 mg/mL
Sucrose (10% w/v), HPLC
  ASSAY CBD: 0.0822 mg/mL
Trehalose (5% w/v), HPLC
  ASSAY CBD: 0.0600 mg/mL
Trehalose (10% w/v), HPLC
  ASSAY CBD: 0.0124 mg/mL
t-butyl alcohol (TBA), (100% v/v), visual observation
  ASSAY CBD: >600 mg/mL
